Data as given in patent US5652252A, “Benzocycloheptenes” (Merck Patent Gesellschaft Mit Beschrankter Haftung, priority 1992, dated 1997).
Read-outs that look alike come from different tables or passages of the source.

System: Dukin-Hartley guinea pigs
Test: Bronchodilating activity in vivo (Konzett and Rossler), histamine bronchospasm
Set-up: species or system guinea pig
Settings: Cavia porcellus, iv, effective dose for 50% inhibition, anaesthetized guinea pigs
Protocol: The bronchodilating activity was measured in vivo by the method of Konzett H. and Rossler R. (Arch. Exp. Pathol. Pharmak., 1940, 195, p. 71 to 74) and Duhault J. et al. (Arzneim. Forsch./Drug. res., 1987, 37, p. 1353 to 1362).
Measurement of the bronchodilating activity:
Dukin-Hartley guinea pigs (400-500 g) are prepared according to the methodology described by Konzett and Rossler. The animals are anaesthetized by an intraperitoneal injection of urethane (1.5 g/kg) and a tracheotomy is prepared for artificial respiration (45 cycles/min; respiratory volume 10 ml/kg).
The animal is connected to a respiratory pump, which is adjusted to deliver a volume of 1 ml per 100 g of body weight of the guinea pig. It is connected to a recorder via a pressure sensor.
A catheter is placed in the jugular for the I.V. injections.
An I.V. injection of gallamine and propanolol is carried out. After stabilizing the pulmonary pressure for 30 minutes, an I.V. injection of histamine is carried out every 10 minutes until reproducibility is achieved; at that point, the test product is injected 10 minutes after the last spasm.

[1] = 5 min, I.V. histamine tested 5 minutes after injection of the product, read-out: Bronchospam ED50 at 5 min
[2] = 0.25 h, I.V. histamine tested 15 minutes after injection of the product, read-out: Bronchospam ED50 at 15 min

Row | SMILES | ED50 [1] | ED50 [2]
1 | CC1(C)C=C(c2cccc[n+]2[O-])c2cc(C#N)ccc2CC1 [Compound 109, 8-Cyano-3,3-dimethyl-1-(2-pyridyl N-oxide)-4,5-dihydro-3H-benzo [f]cycloheptane] | 0.086 mg/kg | 0.331 mg/kg
2 | Cc1cc2c(cc1C#N)OCC(C)(C)C=C2c1cccc[n+]1[O-] [Compound 119] | 0.31 mg/kg | 0.53 mg/kg
3 | CC1(C)C=C(c2cccc[n+]2[O-])c2cc(Cl)ccc2OC1 [Compound 91, 7-Chloro-3,3-methyl-(2-pyridyl N-oxide)-2,3-dihydro-1-benzoxepine] | 0.1 mg/kg | –
4 | CC1(C)C=C(c2cccc[n+]2[O-])c2cc(F)c(F)cc2OC1 [Compound 114, 7,8-Difluoro-3,3-dimethyl-5-(2-pyridyl N-oxide) -2,3-dihydro-1-benzoxepine] | 0.04 mg/kg | 0.3 mg/kg
5 | CC1(C)C=C(c2cccc[n+]2[O-])c2cc(C#N)ccc2OC1 [Compound 104, 7-Cyano-3,3-dimethyl-5-(2-pyridyl N-oxide)-2,3-dihydro-1-benzoxepine] | 0.038 mg/kg | 0.21 mg/kg
6 | Cc1cc2c(cc1C#N)C(c1cccc[n+]1[O-])=CC(C)(C)CO2 [Compound 118, 7-Cyano-3,3,8-trimethyl-5-(2-pyridyl N-oxide)-2,3-dihydro-1-benzoxepine] | 0.15 mg/kg | 0.2 mg/kg
7 | CC1(C)C=C(c2cccc[n+]2[O-])c2cc(Cl)c(Cl)cc2OC1 [Compound 111, 7,8-Dichloro-3,3-dimethyl-5-(2-pyridyl N-oxide)-2,3-dihydro-1-benzoxepine] | 0.049 mg/kg | 0.1 mg/kg
8 | CC1(C)C=C(c2cccc[n+]2[O-])c2cc(C(F)(F)F)ccc2OC1 [Compound 100, 3,3-Dimethyl-5-(2-pyridyl N-oxide)-7-trifluoromethyl-2,3-dihydro-1-benzoxepine] | 0.069 mg/kg | 0.101 mg/kg
